Measured values as given in ChEMBL document CHEMBL5465560, “Selectivity Literature for EUbOPEN Chemogenomic Library” (2024).

Legend:
[1] = biological target: Cyclin-dependent kinase 15 (Homo sapiens) (UniProt Q96Q40); assay: Selectivity interaction (KinomeScan (DiscoverX)) EUB0000092b CDK15; conditions: at 10 µM
[2] = biological target: Receptor-type tyrosine-protein kinase FLT3 (Homo sapiens) (UniProt P36888); assay: Selectivity interaction (ProQinase) EUB0000171b FLT3; conditions: at 5 µM
[3] = biological target: Serine/threonine-protein kinase MRCK alpha (Homo sapiens) (UniProt Q5VT25); assay: Selectivity interaction (Kinase panel (DSF assay)) EUB0001559a CDC42BPA
[4] = biological target: Calcium/calmodulin-dependent protein kinase type II subunit beta (Homo sapiens) (UniProt Q13554); assay: Selectivity interaction (KinomeScan (DiscoverX)) EUB0001079a CAMK2B; conditions: at 1 µM
Aurora kinase B = Aurora kinase B (Homo sapiens, UniProt Q96GD4); assay: Selectivity interaction (Kinase panel (KiNativ target engagement assay in Jurkat cells)) EUB0001635a AURKB; type: cell-based; conditions: Selectivity number of off-targets 0.0, Selectivity number of targets 233.0, Source Knowledge https://www.sciencedirect.com/science/article/pii/S2451945619300674?via%3Dihub, at 1 µM
[5] = biological target: T1, Inhibitor of nuclear factor kappa-B kinase subunit epsilon (Homo sapiens) (UniProt Q14164); assay: Selectivity interaction (Kinase panel (Z-LYTE Assay)) EUB0001632a IKBKE; conditions: at 10 µM
T1 sequence (whole entry): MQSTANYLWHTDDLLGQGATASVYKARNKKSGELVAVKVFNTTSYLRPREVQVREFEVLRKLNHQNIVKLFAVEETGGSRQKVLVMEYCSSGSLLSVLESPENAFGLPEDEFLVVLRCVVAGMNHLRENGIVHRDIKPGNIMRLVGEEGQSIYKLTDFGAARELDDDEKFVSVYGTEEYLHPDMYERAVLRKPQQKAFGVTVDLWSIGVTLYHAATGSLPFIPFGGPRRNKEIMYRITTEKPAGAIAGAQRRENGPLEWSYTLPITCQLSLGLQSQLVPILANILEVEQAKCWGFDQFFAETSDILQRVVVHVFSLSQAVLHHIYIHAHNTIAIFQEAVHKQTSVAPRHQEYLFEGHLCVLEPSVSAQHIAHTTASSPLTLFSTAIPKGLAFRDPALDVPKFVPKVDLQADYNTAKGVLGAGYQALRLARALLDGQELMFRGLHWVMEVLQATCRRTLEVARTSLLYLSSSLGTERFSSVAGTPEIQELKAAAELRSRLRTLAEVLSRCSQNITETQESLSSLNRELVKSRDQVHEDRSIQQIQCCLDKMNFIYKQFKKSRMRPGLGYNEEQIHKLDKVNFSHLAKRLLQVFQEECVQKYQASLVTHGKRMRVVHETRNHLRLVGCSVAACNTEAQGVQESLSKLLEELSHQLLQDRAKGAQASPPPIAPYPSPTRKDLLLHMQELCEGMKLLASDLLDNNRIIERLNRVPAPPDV

[6] = biological target: Tyrosine-protein kinase Fer (Homo sapiens) (UniProt P16591); assay: Selectivity interaction (ActivX KiNativ screen (kinase selectivity in THP-1 cell lysates)) EUB0000639a FER; type: subcellular; conditions: lysate, at 1 µM
[7] = biological target: Ribosomal protein S6 kinase alpha-4 (Homo sapiens) (UniProt O75676); assay: Selectivity interaction (KinomeScan (DiscoverX)) EUB0001049a RPS6KA4; conditions: at 1 µM
[8] = biological target: T2, Serine/threonine-protein kinase Nek5 (Homo sapiens) (UniProt Q6P3R8); assay: Selectivity interaction (KinomeScan (DiscoverX)) EUB0000618a NEK5; conditions: at 10 µM
T2 sequence (whole entry): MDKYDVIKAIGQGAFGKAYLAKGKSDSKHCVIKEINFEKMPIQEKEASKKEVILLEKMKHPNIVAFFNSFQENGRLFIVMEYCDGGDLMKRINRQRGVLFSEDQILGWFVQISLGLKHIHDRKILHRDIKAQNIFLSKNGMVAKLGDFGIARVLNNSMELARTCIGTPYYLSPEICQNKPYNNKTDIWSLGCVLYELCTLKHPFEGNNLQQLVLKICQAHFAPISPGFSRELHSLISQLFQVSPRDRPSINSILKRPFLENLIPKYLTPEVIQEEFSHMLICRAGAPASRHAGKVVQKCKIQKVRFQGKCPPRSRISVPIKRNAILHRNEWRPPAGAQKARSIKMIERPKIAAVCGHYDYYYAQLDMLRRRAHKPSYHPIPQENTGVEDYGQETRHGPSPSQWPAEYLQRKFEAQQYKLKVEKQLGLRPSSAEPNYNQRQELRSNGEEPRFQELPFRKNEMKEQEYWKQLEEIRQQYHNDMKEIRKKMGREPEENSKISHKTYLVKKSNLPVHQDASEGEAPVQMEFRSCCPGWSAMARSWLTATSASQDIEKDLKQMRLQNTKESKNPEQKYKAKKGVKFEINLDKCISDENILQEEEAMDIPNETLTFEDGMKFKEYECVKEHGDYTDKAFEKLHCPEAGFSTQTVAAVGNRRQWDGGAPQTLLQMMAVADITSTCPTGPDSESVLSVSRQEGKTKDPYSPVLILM

[9] = biological target: T3, Histone-arginine methyltransferase CARM1 (Homo sapiens) (UniProt Q86X55); conditions: U-266, at 3 µM
T3 sequence (whole entry): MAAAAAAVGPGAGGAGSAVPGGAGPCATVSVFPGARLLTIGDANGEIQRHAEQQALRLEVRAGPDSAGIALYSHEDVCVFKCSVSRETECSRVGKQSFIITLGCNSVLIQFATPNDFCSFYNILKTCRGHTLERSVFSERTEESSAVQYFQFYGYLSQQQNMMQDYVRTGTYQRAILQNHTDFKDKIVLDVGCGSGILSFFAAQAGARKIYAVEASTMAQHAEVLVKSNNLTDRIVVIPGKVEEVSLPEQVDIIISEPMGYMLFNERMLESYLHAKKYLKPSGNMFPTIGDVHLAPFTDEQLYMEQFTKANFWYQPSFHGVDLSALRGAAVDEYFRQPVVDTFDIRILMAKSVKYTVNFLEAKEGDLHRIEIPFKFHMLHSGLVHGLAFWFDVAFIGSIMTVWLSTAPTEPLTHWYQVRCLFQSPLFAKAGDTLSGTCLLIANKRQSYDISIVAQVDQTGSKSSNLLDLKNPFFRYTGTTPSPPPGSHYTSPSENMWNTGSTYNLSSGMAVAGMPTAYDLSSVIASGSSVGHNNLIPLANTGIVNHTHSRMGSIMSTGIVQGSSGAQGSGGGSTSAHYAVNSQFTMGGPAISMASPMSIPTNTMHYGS

[10] = biological target: Tyrosine-protein kinase JAK1 (Homo sapiens, UniProt P23458); assay: Selectivity interaction (ActivX KiNativ screen (ex vivo kinase selectivity in human PBMCs)) EUB0001619a JAK1; type: cell-based; conditions: PBMC, at 1 µM
[11] = biological target: Mitogen-activated protein kinase kinase kinase 10 (Homo sapiens) (UniProt Q02779); assay: Selectivity interaction (KinomeScan (DiscoverX)) EUB0001619a MAP3K10; conditions: at 1 µM
Sequence of Mitogen-activated protein kinase kinase kinase 10 (Homo sapiens) (Q02779 whole entry, looked up): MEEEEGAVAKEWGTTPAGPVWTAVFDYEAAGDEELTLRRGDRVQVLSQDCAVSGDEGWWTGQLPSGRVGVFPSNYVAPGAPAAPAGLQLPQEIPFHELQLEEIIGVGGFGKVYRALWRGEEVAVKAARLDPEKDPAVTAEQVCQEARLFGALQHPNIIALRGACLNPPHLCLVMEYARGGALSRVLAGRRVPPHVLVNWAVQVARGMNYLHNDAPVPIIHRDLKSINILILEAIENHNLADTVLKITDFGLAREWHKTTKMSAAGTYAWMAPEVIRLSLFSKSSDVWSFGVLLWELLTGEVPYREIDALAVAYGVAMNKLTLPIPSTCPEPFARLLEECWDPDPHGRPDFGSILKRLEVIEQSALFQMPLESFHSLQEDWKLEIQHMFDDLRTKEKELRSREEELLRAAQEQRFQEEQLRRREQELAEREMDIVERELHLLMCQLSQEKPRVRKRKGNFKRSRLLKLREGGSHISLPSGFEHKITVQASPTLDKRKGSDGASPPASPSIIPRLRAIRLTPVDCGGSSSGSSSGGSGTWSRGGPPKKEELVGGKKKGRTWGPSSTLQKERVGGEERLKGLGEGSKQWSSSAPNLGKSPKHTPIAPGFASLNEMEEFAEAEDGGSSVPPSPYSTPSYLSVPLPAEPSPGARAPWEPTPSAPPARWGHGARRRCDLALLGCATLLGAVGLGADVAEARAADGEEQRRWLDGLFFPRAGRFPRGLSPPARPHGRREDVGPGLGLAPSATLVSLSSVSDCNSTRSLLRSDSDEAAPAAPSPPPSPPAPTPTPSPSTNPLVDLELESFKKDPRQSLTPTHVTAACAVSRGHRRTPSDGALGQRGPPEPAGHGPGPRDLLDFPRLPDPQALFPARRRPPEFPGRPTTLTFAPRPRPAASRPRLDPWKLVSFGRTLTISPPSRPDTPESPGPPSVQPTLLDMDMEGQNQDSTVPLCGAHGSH

Sequence of Calcium/calmodulin-dependent protein kinase type II subunit beta (Homo sapiens) (Q13554 whole entry): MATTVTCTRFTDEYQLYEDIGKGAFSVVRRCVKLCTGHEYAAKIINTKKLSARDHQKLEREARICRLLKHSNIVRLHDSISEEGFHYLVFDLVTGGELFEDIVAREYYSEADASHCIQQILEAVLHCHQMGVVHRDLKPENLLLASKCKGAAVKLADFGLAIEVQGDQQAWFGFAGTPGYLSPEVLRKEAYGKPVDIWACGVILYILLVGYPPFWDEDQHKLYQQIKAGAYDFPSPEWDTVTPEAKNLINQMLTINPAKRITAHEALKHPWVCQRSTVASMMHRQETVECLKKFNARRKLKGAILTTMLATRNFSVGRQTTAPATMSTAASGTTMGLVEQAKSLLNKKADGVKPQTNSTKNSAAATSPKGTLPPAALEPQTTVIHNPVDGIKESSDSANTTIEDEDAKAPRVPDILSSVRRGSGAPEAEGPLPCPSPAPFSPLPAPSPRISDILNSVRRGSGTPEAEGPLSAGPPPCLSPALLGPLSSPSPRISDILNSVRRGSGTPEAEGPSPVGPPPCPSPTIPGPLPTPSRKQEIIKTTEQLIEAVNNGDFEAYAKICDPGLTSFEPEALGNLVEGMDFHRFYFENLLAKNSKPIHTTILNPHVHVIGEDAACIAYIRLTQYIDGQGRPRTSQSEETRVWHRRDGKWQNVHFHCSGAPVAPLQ
Sequence of Receptor-type tyrosine-protein kinase FLT3 (Homo sapiens) (P36888 whole entry): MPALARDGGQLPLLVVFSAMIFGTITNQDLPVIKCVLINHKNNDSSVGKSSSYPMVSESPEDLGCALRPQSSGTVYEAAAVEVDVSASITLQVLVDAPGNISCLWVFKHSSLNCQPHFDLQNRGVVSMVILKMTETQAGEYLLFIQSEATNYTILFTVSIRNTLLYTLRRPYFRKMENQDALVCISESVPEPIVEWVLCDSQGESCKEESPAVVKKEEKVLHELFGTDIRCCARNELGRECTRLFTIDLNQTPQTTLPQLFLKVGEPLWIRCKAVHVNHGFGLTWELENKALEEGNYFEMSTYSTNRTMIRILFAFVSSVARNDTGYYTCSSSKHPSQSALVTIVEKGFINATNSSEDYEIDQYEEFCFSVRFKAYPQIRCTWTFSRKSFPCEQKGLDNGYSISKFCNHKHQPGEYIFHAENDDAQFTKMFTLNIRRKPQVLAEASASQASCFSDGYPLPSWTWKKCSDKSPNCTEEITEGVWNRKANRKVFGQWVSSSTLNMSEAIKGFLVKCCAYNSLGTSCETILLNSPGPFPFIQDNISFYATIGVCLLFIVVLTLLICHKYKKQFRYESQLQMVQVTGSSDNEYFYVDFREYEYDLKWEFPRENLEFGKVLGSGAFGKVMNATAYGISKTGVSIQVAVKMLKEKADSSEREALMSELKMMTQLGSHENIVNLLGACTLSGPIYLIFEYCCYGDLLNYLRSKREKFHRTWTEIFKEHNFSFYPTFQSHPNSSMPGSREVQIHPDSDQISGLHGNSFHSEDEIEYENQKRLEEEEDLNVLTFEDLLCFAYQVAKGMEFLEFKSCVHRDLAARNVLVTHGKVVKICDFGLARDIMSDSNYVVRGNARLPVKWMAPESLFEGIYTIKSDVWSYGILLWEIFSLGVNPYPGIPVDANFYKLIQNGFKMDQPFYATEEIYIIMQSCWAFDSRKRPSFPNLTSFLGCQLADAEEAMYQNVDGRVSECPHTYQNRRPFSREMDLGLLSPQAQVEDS
Sequence of Tyrosine-protein kinase JAK1 (P23458 whole entry): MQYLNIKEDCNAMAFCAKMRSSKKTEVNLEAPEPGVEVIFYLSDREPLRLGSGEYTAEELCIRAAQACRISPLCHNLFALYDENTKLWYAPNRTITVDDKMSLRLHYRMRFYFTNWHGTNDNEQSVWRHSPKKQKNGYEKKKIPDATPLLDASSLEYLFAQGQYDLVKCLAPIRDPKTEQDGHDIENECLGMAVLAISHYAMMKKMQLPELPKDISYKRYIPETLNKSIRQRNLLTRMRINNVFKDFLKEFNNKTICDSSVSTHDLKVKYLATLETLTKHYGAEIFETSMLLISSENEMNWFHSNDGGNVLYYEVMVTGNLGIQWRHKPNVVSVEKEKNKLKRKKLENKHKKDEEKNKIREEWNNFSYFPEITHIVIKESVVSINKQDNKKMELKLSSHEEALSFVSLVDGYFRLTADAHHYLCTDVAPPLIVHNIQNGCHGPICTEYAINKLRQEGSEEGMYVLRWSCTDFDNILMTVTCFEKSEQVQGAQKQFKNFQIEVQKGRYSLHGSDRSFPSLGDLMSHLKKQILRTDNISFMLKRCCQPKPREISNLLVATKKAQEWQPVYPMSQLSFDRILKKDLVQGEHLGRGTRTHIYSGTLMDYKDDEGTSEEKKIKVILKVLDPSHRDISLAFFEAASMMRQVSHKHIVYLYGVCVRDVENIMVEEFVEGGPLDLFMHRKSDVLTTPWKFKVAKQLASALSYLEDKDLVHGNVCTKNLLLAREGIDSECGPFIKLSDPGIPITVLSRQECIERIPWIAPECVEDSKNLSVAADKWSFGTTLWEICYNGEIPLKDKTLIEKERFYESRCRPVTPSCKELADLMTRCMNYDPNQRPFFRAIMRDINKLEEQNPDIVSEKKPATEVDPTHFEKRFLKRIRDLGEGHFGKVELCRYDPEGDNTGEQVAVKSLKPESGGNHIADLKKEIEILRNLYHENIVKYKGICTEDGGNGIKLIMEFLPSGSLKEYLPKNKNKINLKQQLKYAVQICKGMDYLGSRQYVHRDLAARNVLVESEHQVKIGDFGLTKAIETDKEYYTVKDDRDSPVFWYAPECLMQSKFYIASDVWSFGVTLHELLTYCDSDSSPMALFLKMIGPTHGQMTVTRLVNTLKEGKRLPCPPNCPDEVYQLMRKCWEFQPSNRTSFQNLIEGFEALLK
Sequence of Tyrosine-protein kinase Fer (Homo sapiens) (P16591 whole entry, looked up): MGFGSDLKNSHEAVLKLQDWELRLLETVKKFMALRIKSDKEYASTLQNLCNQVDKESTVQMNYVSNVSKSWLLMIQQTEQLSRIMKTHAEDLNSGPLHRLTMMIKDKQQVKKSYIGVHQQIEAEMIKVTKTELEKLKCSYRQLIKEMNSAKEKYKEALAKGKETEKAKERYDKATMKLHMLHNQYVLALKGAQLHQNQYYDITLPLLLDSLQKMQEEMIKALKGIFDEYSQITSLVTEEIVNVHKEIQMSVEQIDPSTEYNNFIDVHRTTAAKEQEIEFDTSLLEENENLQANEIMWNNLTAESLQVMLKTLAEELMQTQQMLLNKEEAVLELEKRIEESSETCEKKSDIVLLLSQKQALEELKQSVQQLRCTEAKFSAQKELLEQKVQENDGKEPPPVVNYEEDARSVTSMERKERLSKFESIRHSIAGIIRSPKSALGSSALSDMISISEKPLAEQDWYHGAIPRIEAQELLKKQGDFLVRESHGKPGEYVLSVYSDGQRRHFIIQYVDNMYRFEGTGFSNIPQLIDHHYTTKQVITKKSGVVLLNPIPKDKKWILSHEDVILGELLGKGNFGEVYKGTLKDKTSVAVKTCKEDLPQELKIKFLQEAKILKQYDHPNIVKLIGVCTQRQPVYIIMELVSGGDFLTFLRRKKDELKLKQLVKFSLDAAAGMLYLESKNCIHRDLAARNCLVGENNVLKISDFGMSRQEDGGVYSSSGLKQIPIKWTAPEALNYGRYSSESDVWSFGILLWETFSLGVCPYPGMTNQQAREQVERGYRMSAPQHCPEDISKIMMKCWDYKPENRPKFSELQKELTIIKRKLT
Sequence of Cyclin-dependent kinase 15 (Homo sapiens) (Q96Q40 whole entry): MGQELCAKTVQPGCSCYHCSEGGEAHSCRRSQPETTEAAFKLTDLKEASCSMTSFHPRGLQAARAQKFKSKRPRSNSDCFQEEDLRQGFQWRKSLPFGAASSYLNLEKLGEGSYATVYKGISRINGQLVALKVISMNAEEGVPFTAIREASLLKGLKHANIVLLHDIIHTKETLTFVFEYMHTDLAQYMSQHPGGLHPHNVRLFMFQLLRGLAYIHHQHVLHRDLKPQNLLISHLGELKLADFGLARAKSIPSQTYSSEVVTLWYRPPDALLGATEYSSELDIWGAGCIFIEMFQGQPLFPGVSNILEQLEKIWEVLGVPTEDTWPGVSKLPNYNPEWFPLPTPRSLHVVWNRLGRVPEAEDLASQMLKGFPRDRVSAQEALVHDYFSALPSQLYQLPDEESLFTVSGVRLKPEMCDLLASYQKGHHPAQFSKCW

SMILES: CCC(=O)N1CCN(c2ccc(-n3c(=O)ccc4cnc5ccc(-c6cnc7ccccc7c6)cc5c43)cc2C(F)(F)F)CC1
- % of control [1]: 88%

SMILES: C=CC(=O)Nc1cccc(C(=O)Nc2ccc(Nc3cc(-c4[nH]c(SC)nc4C)ccn3)cc2)c1
- % of control [2]: 62%

SMILES: CN(C(=O)c1cnn2cccnc12)c1cc2c(cc1N1CCOCC1)C(=O)N(C[C@@H](F)C(C)(C)O)C2
- dTM [3]: 0 K

SMILES: Nc1cnc(N2CCc3cc(S(=O)(=O)Nc4c(F)cc(Cl)cc4F)cc(N4CCCC4=O)c32)nc1 [TP-020n]
- % of control [4]: 100%

SMILES: C=CC(=O)Nc1ccc(C(=O)Nc2[nH]nc3c2CN(C(=O)N[C@H](CN(C)C)c2ccccc2)C3(C)C)cc1
- % of engagement (Aurora kinase B): 23%

SMILES: Cn1cc(-n2cnc3c(NCc4nc5cc(Cl)c(Cl)cc5[nH]4)nc(N4CCOCC4)nc32)cn1
- % of control [5]: 2.49%

SMILES: CC[C@@H]1[C@H](F)C(=O)N[C@@H]1COc1nccc2cc(C(N)=O)c(OC)cc12 [ZIMLOVISERTIB]
- % of inhibition [6]: -8.9%

SMILES: COc1cc(Nc2nc(C)cc(-c3cnn4nc(OC)ccc34)n2)cc(C(F)(F)F)c1
- % of control [7]: 96%

SMILES: O[C@H]1CC[C@H](Nc2ncc3nc(Nc4c(F)cc(F)cc4F)n([C@H]4CCOC4)c3n2)CC1
- % of control [8]: 100%

SMILES: CNCCN1CCC(c2cc(CN(C)C(=O)c3cccc(Oc4ccccc4)c3)ccn2)CC1
- % of growth rate [9]: -24.4%

SMILES: N#Cc1cccc(-c2c[nH]c3ncnc(N4CCOCC4)c23)c1
- % of inhibition [10]: 19%
- % of control [11]: 100%
